The text below walks through data of US8404650B2, “Methods of treating cancer with doxazolidine and prodrugs thereof” (priority 2005, dated 2013).

One assay concerns DU-145. Put plainly: Growth inhibition of DU-145 prostate cancer cells. Type of assay: cell-based. The following applies: for Cell growth inhibition IC50, DU-145: 24 h drug treatment, crystal violet. As for the experimental part:
(§1) In vitro Activity. […] This cell suspension was dispensed in 200 μL aliquots (1000 cells/well) into the inside wells of 96-well tissue culture plates. Outside wells contained 200 μL of media. […] The medium was replaced with 90 μL of growth medium prior to addition of the drug. Doxaz was dissolved in DMSO at concentrations ranging from 50 μM to 1 mM. […] Serial dilutions (1:3 and 1:10) were made in sterile DMSO to yield seven solutions of decreasing drug concentration at 100× the respective working concentrations. […] Additionally, two lanes were treated with 10 μL of growth medium containing 10% sterile DMSO and one lane was treated with 90 μL of 1.5 M Tris HCl. […]
(§2) SHP-77 small cell lung cancer cells were also of interest because they express modest amounts of both enzymes. Inhibition of the growth of cardiomyocytes was used as a measure of cardiotoxicity, and inhibition of the growth of Vero cells, green monkey kidney cells, was again used as another measure of toxicity to normal cells.
A more thorough characterization of the growth inhibition of a variety of cancer cells as well as rat cardiomyocytes by Formula IV (aFK-PABC-Doxaz) was evaluated in comparison with inhibition of growth by Doxaz, Dox and aFK-PABC-Dox. […] […] The breast cancer cell lines represent the multi-drug resistant (MDR) phenotype with MCF-7/Adr cells and a cell line that is transfected with the gene for urokinase plasminogen activator (uPA), the primary enzyme responsible for cleavage of plasminogen to plasmin. Rat cardiomyocytes served as a model for comparison of drug cardiotoxicity.

In another assay the test system is MCF-7. The experiment in a line: Growth inhibition of MCF-7 sensitive breast cancer cells (colony formation, crystal violet). The assay is classed as cell-based, human. As for the experimental part: as §1
(§3) Cell growth inhibition experiments initially focused on MCF-7, MCF-7/Adr, SK-HEP-1, and Hep G2 cancer cells as well as rat cardiomyocytes as a measure of cardiotoxicity and Vero cells (green monkey kidney cells) as an additional measure of normal cell toxicity.
(§4) Activity of plasmin-activated prodrugs.
(§5) A more thorough characterization of the growth inhibition of a variety of cancer cells as well as rat cardiomyocytes by Formula IV (aFK-PABC-Doxaz) was evaluated in comparison with inhibition of growth by Doxaz, Dox and aFK-PABC-Dox. Cells were treated with drug for 3 h and colony growth was measured at 3 to 5 days when cells reached about 80% confluence. […] The breast cancer cell lines represent the multi-drug resistant (MDR) phenotype with MCF-7/Adr cells and a cell line that is transfected with the gene for urokinase plasminogen activator (uPA), the primary enzyme responsible for cleavage of plasminogen to plasmin. Rat cardiomyocytes served as a model for comparison of drug cardiotoxicity.

The next assay deals with MCF-7/Adr. The experiment in a line: Growth inhibition of multidrug resistant MCF-7/Adr breast cancer cells (crystal violet). The assay is classed as cell-based. Particulars: for IC50: read-out: IC50 MCF-7/Adr; for Growth inhibition IC50, MCF-7/Adr, 24 h: 24 h drug treatment. Here is the method:
as §1, §3, §4, §5

For a further assay, the system named is MDA-MB-435. Put plainly: Growth inhibition of MDA-MB-435 breast cancer cells. Type of assay: cell-based. The following applies: 3 h drug treatment, growth at 5 days; read-out: IC50 MDA-MB-435. Here is the method: In vitro Activity. […] This cell suspension was dispensed in 200 μL aliquots (1000 cells/well) into the inside wells of 96-well tissue culture plates. Outside wells contained 200 μL of media. […] The medium was replaced with 90 μL of growth medium prior to addition of the drug. Doxaz was dissolved in DMSO at concentrations ranging from 50 μM to 1 mM. […] Serial dilutions (1:3 and 1:10) were made in sterile DMSO to yield seven solutions of decreasing drug concentration at 100× the respective working concentrations. […] Additionally, two lanes were treated with 10 μL of growth medium containing 10% sterile DMSO and one lane was treated with 90 μL of 1.5 M Tris HCl. The cells were incubated at 37° C. for 3 h, at which time the drug solutions were replaced with 200 μL of fresh growth medium.
as §4

For another assay, the system named is cancer cells. The following applies: background statement; cited from earlier work.
The subject of the next assay is Vero cells. Put plainly: Growth inhibition of Vero cells as a measure of normal cell toxicity (MTT). The assay is classed as cell-based, green monkey. The following applies: 24 h drug treatment.
From the text: as §3, §2

The test system of a further assay is SHP-77. Put plainly: Growth inhibition of SHP-77 small cell lung cancer cells. The assay is classed as cell-based. The following applies: 24 h drug treatment; crystal violet.
From the text: as §2

The next assay deals with Hep G2. Put plainly: Growth inhibition of Hep G2 liver cancer cells. The assay is classed as cell-based, human. Particulars: crystal violet; for Growth inhibition IC50, Hep G2, 24 h: 24 h drug treatment. The source says:
(§6) Cell growth inhibition experiments initially focused on MCF-7, MCF-7/Adr, SK-HEP-1, and Hep G2 cancer cells as well as rat cardiomyocytes as a measure of cardiotoxicity and Vero cells (green monkey kidney cells) as an additional measure of normal cell toxicity. […]

The subject of another assay is SK-HEP-1. Put plainly: Growth inhibition of SK-HEP-1 liver cancer cells. The assay is classed as cell-based, human. Particulars: crystal violet; for Growth inhibition IC50, SK-HEP-1, 24 h: 24 h drug treatment.
From the text: as §6

Assay [1] relates to H9c2(2-1) rat cardiomyocytes. The experiment in a line: Growth inhibition of rat cardiomyocytes as a measure of cardiotoxicity. The assay is classed as cell-based. Particulars: for Growth inhibition IC50, H9c2(2-1), 24 h: 24 h drug treatment, crystal violet. Here is the method: Biological activity of simple Doxazolidine carbamates. Since the prodrug carbamates were designed to be activated by carboxylesterases CES1 (hCE1) and/or CES2 (hiCE), cell lines of interest were measured for expression of the respective mRNAs using reverse transcription (RT) followed by PCR (polymerase chain reaction). Cancer cell lines investigated included SHP-77 resistant small cell lung, DU-145 prostate, MCF-7 sensitive breast, MCF-7/Adr resistant breast, SK-HEP-1 liver, and Hep G2 liver cells. As a measure of possible cardiotoxicity, H9c2(2-1) rat cardiomyocytes were also investigated. Cardiotoxicity is relevant because the ultimate product of metabolism and subsequent hydrolysis of these carbamates is doxorubicin, which is cardiotoxic. […] Additionally, the rat cardiomyocytes, H9c2(2-1), also express more CES2 than CES1.
Cell growth inhibition experiments initially focused on MCF-7, MCF-7/Adr, SK-HEP-1, and Hep G2 cancer cells as well as rat cardiomyocytes as a measure of cardiotoxicity and Vero cells (green monkey kidney cells) as an additional measure of normal cell toxicity. The butyl and pentyl carbamates inhibited the growth of MCF-7, MCF-7/Adr, and SK-HEP-1 cell lines with a 24 h drug treatment period with some selectivity for cancer cells over cardiomyocytes relative to growth inhibition by Dox as shown in Table 2. […] The relative inactivity of the ethyl carbamate may indicate that a substantial lipophilic interaction is required at the active site of the carboxylesterases to hold the Doxaz substrate.
Biological activity of Doxazolidine carbamates with self-eliminating spacer. […] SHP-77 small cell lung cancer cells were also of interest because they express modest amounts of both enzymes. Inhibition of the growth of cardiomyocytes was used as a measure of cardiotoxicity, and inhibition of the growth of Vero cells, green monkey kidney cells, was again used as another measure of toxicity to normal cells. They also show more activity against the cancer cells that express higher levels of CES1. Of particular note is the higher activity against Hep G2 cells than against SK-HEP-1 cells. […] The low toxicity of pentyl PABC-Doxaz to cardiomyocytes relative to the toxicity of Dox is encouraging and consistent with the low level of expression of CES1 in cardiomyocytes.
A more thorough characterization of the growth inhibition of a variety of cancer cells as well as rat cardiomyocytes by Formula IV (aFK-PABC-Doxaz) was evaluated in comparison with inhibition of growth by Doxaz, Dox and aFK-PABC-Dox. Cells were treated with drug for 3 h and colony growth was measured at 3 to 5 days when cells reached about 80% confluence. The cancer cells included one prostate cancer cell line (DU-145), three related breast cancer cell lines (MCF-7, MCF-7/Adr, and MCF-7 uPA), and one pancreatic cancer cell line (Mia PaCa-2). The breast cancer cell lines represent the multi-drug resistant (MDR) phenotype with MCF-7/Adr cells and a cell line that is transfected with the gene for urokinase plasminogen activator (uPA), the primary enzyme responsible for cleavage of plasminogen to plasmin. Rat cardiomyocytes served as a model for comparison of drug cardiotoxicity. Growth inhibition was also measured with added plasmin. aFK-PABC-Doxaz inhibited the growth of most of the cancer cells 0.5 log or more better than did aFK-PABA-Dox. Although not as dramatic, this differential response paralleled the differential response between Doxaz and Dox which is approximately two logs except for the MDR expressing, MCF-7/Adr cells which show more than three logs differential response. […] Addition of 0.01 unit/mL of plasmin has no effect on the activity of Dox but increases the activity of both aFK-PABC-Doxaz and aFK-PABC-Dox, in some cases by more than a log. Addition of 0.01 unit/mL plasminogen increases the activity of aFK-PABC-Doxaz on average by 0.3 log. […]

Where [2] appears, read: 24 h drug treatment, crystal violet.
[3] abbreviates: 3 h drug treatment, crystal violet.

Like-named read-outs stand apart in the source and are kept apart here. Some results are limits rather than exact numbers.

With `COc1cccc2c1C(=O)c1c(O)c3c(c(O)c1C2=O)C[C@@](O)(C(=O)CO)C[C@@H]3O[C@H]1C[C@H](N)[C@@H](O)[C@H](C)O1` [Epi, Epidoxorubicin, reference compound], the IC50 was 380 ± 52 nM in the assay on DU-145 (Homo sapiens, DU-145, read-out: IC50 DU-145); 200 nM in the assay on MCF-7 (Homo sapiens, MCF7, read-out: IC50 MCF-7, 3 h drug treatment, growth at 5 days); more than 10000 nM with MCF-7/Adr (Homo sapiens, NCI/ADR-RES).

As for `COc1cccc2c1C(=O)c1c(O)c3c(c(O)c1C2=O)C[C@@](O)(C(=O)CO)C[C@@H]3O[C@H]1C[C@H](NCNC(=O)c2ccccc2O)[C@H](O)[C@H](C)O1` [DoxSF, doxsaliform, reference compound], the IC50 in the assay on MCF-7 (3 h drug treatment, growth at 5 days, read-out: IC50 MCF-7) is 70 to 80 nM; in the assay on MDA-MB-435 it was 50 ± 9 nM; in the assay with MCF-7/Adr (3 h drug treatment, growth at 5 days), 800 to 2000 nM. Further, the “Less active than DoxF in cancer cell growth inhibition” value in the assay with cancer cells was 50 fold.

Take `CCCCOC(=O)N1COC2C(C)OC(OC3CC(O)(C(=O)CO)Cc4c(O)c5c(c(O)c43)C(=O)c3c(OC)cccc3C5=O)CC21` (centres unmarked) [Doxaz Butyl Carbamate]: the “Growth inhibition IC50, Vero, 24 h” value in the assay with Vero cells is −6.3 ± 0.1 log of the molar concentration. Also, the “Cell growth inhibition IC50, SHP-77” value in the assay with SHP-77 is −6.6 ± 0.3 log of molar concentrations. In addition, the “Cell growth inhibition IC50, DU-145” value with DU-145 is reported as −6.4 ± 0.02 log of molar concentrations. Moreover, the “Growth inhibition IC50, MCF-7, 24 h” value with MCF-7 (setting [2]) is −6.1 ± 0.04 log of the molar concentration. Moreover, the “Growth inhibition IC50, Hep G2, 24 h” value in the assay on Hep G2 is recorded as −6.7 ± 0.3 log of the molar concentration. Besides, in the assay on MCF-7/Adr (crystal violet), the “Growth inhibition IC50, MCF-7/Adr, 24 h” value was −6.2 ± 0.3 log of the molar concentration. The “Growth inhibition IC50, SK-HEP-1, 24 h” value with SK-HEP-1 was −6.4 ± 0.2 log of the molar concentration. Moreover, in [1], the “Growth inhibition IC50, H9c2(2-1), 24 h” value is recorded as −5.8 ± 0.2 log of the molar concentration.

In the case of `CCOC(=O)N1COC2C(C)OC(OC3CC(O)(C(=O)CO)Cc4c(O)c5c(c(O)c43)C(=O)c3c(OC)cccc3C5=O)CC21` (centres unmarked) [Doxaz Ethyl Carbamate], the “Growth inhibition IC50, MCF-7, 3 h” value with MCF-7 (setting [3]) is on record as >−6 log of the molar concentration. Further, the IC50 in the assay on MCF-7 (24 h drug treatment, crystal violet, read-out: Growth inhibition IC50, MCF-7, 24 h) is more than 1000 nM. Moreover, the “Growth inhibition IC50, Hep G2, 3 h” value in the assay on Hep G2 (3 h drug treatment) is >−6 log of the molar concentration. Further, in the assay with Hep G2, the “Growth inhibition IC50, Hep G2, 24 h” value was >−6 log of the molar concentration. In addition, in the assay with MCF-7/Adr (setting [3]), the “Growth inhibition IC50, MCF-7/Adr, 3 h” value is listed as −5.3 ± 0.04 log of the molar concentration. Further, the “Growth inhibition IC50, MCF-7/Adr, 24 h” value with MCF-7/Adr (crystal violet) is reported as >−5 log of the molar concentration. Moreover, the “Growth inhibition IC50, SK-HEP-1, 3 h” value in the assay on SK-HEP-1 (3 h drug treatment) is on record as >−6 log of the molar concentration. Also, the “Growth inhibition IC50, SK-HEP-1, 24 h” value in the assay with SK-HEP-1 was >−6 log of the molar concentration. Also, the “Growth inhibition IC50, H9c2(2-1), 3 h” value in assay [1] (3 h drug treatment, MTT) is on record as −5.8 ± 0.2 log of the molar concentration.

Consider `CCCCOC(=O)Nc1ccc(COC(=O)N2COC3C(C)OC(OC4CC(O)(C(=O)CO)Cc5c(O)c6c(c(O)c54)C(=O)c4c(OC)cccc4C6=O)CC32)cc1` (centres unmarked) [Butyl PABC-Doxaz], for which the “Growth inhibition IC50, Vero, 24 h” value with Vero cells was −6.1 ± 0.08 log of the molar concentration. Moreover, in the assay on SHP-77, the “Cell growth inhibition IC50, SHP-77” value is listed as −7.1 ± 0.1 log of molar concentrations. In the assay with DU-145, the “Cell growth inhibition IC50, DU-145” value is on record as −6.3 ± 0.3 log of molar concentrations. The “Growth inhibition IC50, MCF-7, 24 h” value in the assay with MCF-7 (setting [2]) is −4.1 ± 0.3 log of the molar concentration. Further, the “Growth inhibition IC50, Hep G2, 24 h” value in the assay on Hep G2 was −7.7 ± 0.03 log of the molar concentration. Also, the “Growth inhibition IC50, MCF-7/Adr, 24 h” value with MCF-7/Adr (crystal violet) is given as −5.9 ± 0.06 log of the molar concentration. In addition, the “Growth inhibition IC50, SK-HEP-1, 24 h” value in the assay with SK-HEP-1 was −5.8 ± 0.04 log of the molar concentration. In addition, in assay [1], the “Growth inhibition IC50, H9c2(2-1), 24 h” value is listed as −7.2 ± 0.2 log of the molar concentration.
